Experimental findings from patent US12624018B1, “Inhibitors of RIPK2 and medical uses thereof” (Odyssey Therapeutics, Inc., priority 2022, dated 2026) are described below.

Read-outs that look alike come from different tables or passages of the source.

The test system of one experiment is human NOD2 signaling. The experiment is described as follows: Inhibition of human NOD2 signaling in HEK-Blue-hNOD2 cells (L18-MDP stimulated, SEAP reporter). Format: cell-based. Conditions: NOD2 ligand stimulation, SEAP reporter, read-out: hNOD2 IC50. In short, it runs like this:
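HEK-Blue-hNOD2 cells (HEK293 with NOD2 and SEAP reporter), 12500/well, treated with 10-point 3-fold compound dilutions plus L18-MDP 0.5 ng/mL final, 24 h at 37 °C. Supernatant SEAP read with QUANTI-Blue after 3 h at 620 nm; IC50 by 4-parameter fit vs DMSO±L18-MDP controls.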

For the next experiment, the target named is T1, RIPK2 enzyme (Homo sapiens, UniProt O43353).
T1 construct: purchased Carna 09-128
T1 sequence (O43353 1-299 limits assumed): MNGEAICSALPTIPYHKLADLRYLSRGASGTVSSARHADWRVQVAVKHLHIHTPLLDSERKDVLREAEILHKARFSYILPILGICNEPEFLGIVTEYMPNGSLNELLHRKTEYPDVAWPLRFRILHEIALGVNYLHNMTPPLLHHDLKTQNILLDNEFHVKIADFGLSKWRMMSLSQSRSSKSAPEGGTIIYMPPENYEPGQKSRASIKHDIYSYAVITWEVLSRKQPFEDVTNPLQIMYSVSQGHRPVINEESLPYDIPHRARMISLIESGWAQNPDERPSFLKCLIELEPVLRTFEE
Put plainly: RIPK2 inhibition (ADP-Glo Kinase Assay). Conditions: RIPK2 5 nM, ATP 150 μM, MBP substrate, read-out: RIPK2 IC50. The class given is biochemical. In short, it runs like this: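 Human RIPK2 (5 nM) preincubated with compound 30 min at room temperature in 50 mM HEPES pH 7.5, 10 mM MgCl2, 2 mM DTT, 1 mM EGTA, 0.01% Brij-35, 0.05% BSA; native swine MBP as substrate. ADP formed quantified by ADP-Glo luminescence; percent inhibition relative to DMSO and no-enzyme controls.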

Experiment [1] addresses T2, RIPK2 and XIAP protein-protein interaction (Homo sapiens, UniProt O43353).
T2 construct: the N-terminus of full-length RIPK2 was appended with the HaloTag fusion protein; expressed in transfected cells; host or cells: HEK293T
Put plainly: Inhibition of the interaction of RIPK2 with XIAP (NanoBRET in HEK293T cells). The class given is cell-based. Conditions: RIPK2 HaloTag / XIAP NanoLuc, read-out: NanoBRET Scaffolding IC50. The source says: An assay measuring the RIPK2 and XIAP protein-protein interaction was generated using the NanoBRET protein:protein interaction system (Promega) which measures the energy transfer from a bioluminescent protein donor (NanoLuc fusion protein) to a fluorescent protein acceptor (Halotag fusion protein). In this assay, the C-terminus of full-length XIAP was appended with the NanoLuc fusion protein and the N-terminus of full-length RIPK2 was appended with the HaloTag fusion protein. Assay medium consisted of Opti-MEM I reduced serum medium with no phenol red plus 4% heat inactivated FBS. Transfection reagents were combined in a microfuge tube as follows: 400 μL of assay medium, 8 μL of vector with N-terminus of RIPK2 HaloTag fusion protein (vector concentration at 1 μg/μL), 0.8 μL of vector with C-terminus of XIAP NanoLuc fusion protein (vector concentration at 1 μg/μL), and 24 μL of FuGENE HD transfection reagent (Promega, catalogue number E2312). […] Test compounds were prepared into a 10 mM DMSO solution and were serially diluted into 10 points using a 3-fold dilution in a 384 well plate using a TECAN EV0200.
Method: HEK293T cells were transfected with the RIPK2 HaloTag fusion and XIAP NanoLuc fusion vectors in suspension. […] Transfection reagents were pre-mixed and incubated at room temperature for 30 minutes. Then the total transfection reagent mixture was added dropwise to the 16 mL cell suspension and mixed gently. 40 μL of the cells and transfection reagent suspension was plated into a white 384 well plate and incubated at 37° C. in a CO2 incubator for 24 hours. […] Lastly, a 3× solution of NanoBRET Nano-Glo substrate in Opti-MEM I reduced serum media (no phenol red; 20 μL total volume) was added to each well and incubated for 2-3 minutes at room temperature. The plate was then measured using 460 nm filter (donor emission) and 618 nm filter (acceptor emission) in an EnVision multimode plate reader (PerkinElmer). The NanoBRET ratio values were determined by dividing the acceptor emission value by the donor emission value for each sample.
For orientation: BRET reads energy transfer from a luciferase to a nearby fluorophore.

[2] abbreviates: Homo sapiens, HEK-Blue hNOD2, HEK-Blue-hNOD2 cells.

T2 sequence (O43353 whole entry, the tested form may be a part): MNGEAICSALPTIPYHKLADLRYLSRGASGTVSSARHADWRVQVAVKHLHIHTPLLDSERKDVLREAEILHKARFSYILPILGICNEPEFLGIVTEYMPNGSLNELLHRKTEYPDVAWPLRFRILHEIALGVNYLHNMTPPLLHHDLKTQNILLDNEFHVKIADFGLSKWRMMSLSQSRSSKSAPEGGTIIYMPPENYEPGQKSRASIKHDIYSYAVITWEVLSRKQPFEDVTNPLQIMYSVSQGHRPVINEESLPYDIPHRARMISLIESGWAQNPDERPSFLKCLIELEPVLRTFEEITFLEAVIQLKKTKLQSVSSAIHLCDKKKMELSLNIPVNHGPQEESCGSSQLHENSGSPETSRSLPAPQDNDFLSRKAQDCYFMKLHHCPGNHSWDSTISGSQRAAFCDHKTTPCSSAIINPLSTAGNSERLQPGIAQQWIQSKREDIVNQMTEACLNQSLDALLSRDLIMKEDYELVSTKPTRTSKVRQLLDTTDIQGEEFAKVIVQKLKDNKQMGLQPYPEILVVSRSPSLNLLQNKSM

`Cc1cc(CC(=O)Nc2cnn(C34CC(C3)C4)c2)ccc1Oc1ccnc2ccc(S(=N)(=O)C3CC3)cc12` (single isomer, unassigned) [Compound 529, N-(1-(bicyclo[1.1.1]pentan-1-yl)-1H-pyrazol-4-yl)-2-(4-((6-(cyclopropanesul-fonimidoyl)quinolin-4-yl)oxy)-3-methylphenyl) acetamide]: the IC50 with human NOD2 signaling (setting [2]) is 14.3 nM; on RIPK2 enzyme it was less than 2.5 nM; in experiment [1], 75 nM.

Consider `Cc1cc(CC(=O)Nc2cnn(C34CC(C3)C4)c2)ccc1Oc1ccnc2ccc(S(=N)(=O)C3CC3)cc12` (single isomer, unassigned) [Compound 530, N-(1-(bicyclo[1.1.1]pentan-1-yl)-1H-pyrazol-4-yl)-2-(4-((6-(cyclopropanesul-fonimidoyl)quinolin-4-yl)oxy)-3-methylphenyl) acetamide], for which the IC50 with human NOD2 signaling (HEK-Blue-hNOD2 cells) is 21.5 nM; on RIPK2 enzyme, less than 2.5 nM; in experiment [1], 94.3 nM.

Consider `Cc1cc(CC(=O)Nc2cnn(C(C)(C)C)c2)ccc1Oc1ccnc2ccc(S(=N)(=O)C(C)C)cc12` (single isomer, unassigned) [Compound 547, N-(1-(tert-butyl)-1H-pyrazol-4-yl)-2-(3-methyl-4-((6-(propan-2-ylsulfonimidoyl)quinolin-4-yl)oxy)phenyl) acetamide], for which the results for the IC50 (in the experiment with human NOD2 signaling (setting [2]); on RIPK2 enzyme; in experiment [1]) were 1.3 nM, less than 2.5 nM and 153 nM, respectively.

Regarding `Cc1cc(CC(=O)Nc2cnn(C(C)(C)C)c2)ccc1Oc1ccnc2ccc(S(=N)(=O)C(C)C)cc12` (single isomer, unassigned) [Compound 548, N-(1-(tert-butyl)-1H-pyrazol-4-yl)-2-(3-methyl-4-((6-(propan-2-ylsulfonimidoyl)quinolin-4-yl)oxy)phenyl) acetamide], the results for the IC50 (in the experiment on human NOD2 signaling (HEK-Blue-hNOD2 cells); at RIPK2 enzyme; in experiment [1]) were 0.9 nM, less than 2.5 nM and 108 nM, respectively.

For `Cc1cc(CC(=O)Nc2cnn(C(C)(C)C)c2)ccc1Oc1ccnc2ccc(S(=N)(=O)C3CCC3)cc12` (single isomer, unassigned) [Compound 551, N-(1-(tert-butyl)-1H-pyrazol-4-yl)-2-(4-((6-(cyclobutanesulf-onimidoyl)quinolin-4-yl)oxy)-3-methylphenyl) acetamide], the values for the IC50 (in the experiment with human NOD2 signaling (setting [2]); on RIPK2 enzyme; in experiment [1]) were 1.7 nM, less than 2.5 nM and 87.1 nM, respectively.

For the compound `Cc1cc(CC(=O)Nc2cnn(C(C)(C)C)c2)ccc1Oc1ccnc2ccc(S(=N)(=O)C3CCC3)cc12` (single isomer, unassigned) [Compound 552, N-(1-(tert-butyl)-1H-pyrazol-4-yl)-2-(4-((6-(cyclobutane-sulfonimidoyl)quinolin-4-yl)oxy)-3-methylphenyl) acetamide], the IC50 in the experiment on human NOD2 signaling (HEK-Blue-hNOD2 cells) was 1.7 nM; on RIPK2 enzyme, less than 2.5 nM; in experiment [1], 60.9 nM.

Regarding `[2H]C([2H])([2H])NC(=O)c1ccc2nccc(Oc3cc(F)c(CC(=O)Nc4cnn(C(C)(C)C)c4)c(F)c3C)c2c1` (single isomer, unassigned) [Compound 555, 4-(4-(2-((1-(tert-butyl)-1H-pyrazol-4-yl)amino)-2-oxoethyl)-3,5-difluoro-2-methylphenoxy)-N-(methyl-d3)quinoline-6-carboxamide], the IC50 was 0.1 nM in the experiment on human NOD2 signaling (setting [2]), less than 2.5 nM at RIPK2 enzyme and 7.3 nM in experiment [1].

Regarding `[2H]C([2H])([2H])NC(=O)c1ccc2nccc(Oc3cc(F)c(CC(=O)Nc4cnn(C56CC(C5)C6)c4)cc3C)c2c1` (single isomer, unassigned) [Compound 563, 4-(4-(2-((1-(bicyclo[1.1.1]pentan-1-yl)-1H-pyrazol-4-yl)amino)-2-oxoethyl)-5-fluoro-2-methylphenoxy)-N-(methyl-d3)quinoline-6-carboxamide], the IC50 with human NOD2 signaling (setting [2]) was 1.9 nM; at RIPK2 enzyme, less than 2.5 nM; in experiment [1], 176 nM.

Take `CC(C)(C)n1cc(NC(=O)Cc2cc(Cl)c(Oc3ccnc4ccc(S(=O)(=O)C5CC5)cc34)cc2F)cn1` [Compound 464, N-(1-(tert-butyl)-1H-pyrazol-4-yl)-2-(5-chloro-4-((6-(cyclopropylsulfonyl)quinolin-4-yl)oxy)-2-fluorophenyl)acetamide]: the IC50 is 0.5 nM with human NOD2 signaling (setting [2]), less than 2.5 nM at RIPK2 enzyme and 7.5 nM in experiment [1].

In the case of `CNC(=O)c1ccc2nccc(Oc3c(C)cc(CC(=O)Nc4cnn(C(C)(C)C)c4)cc3F)c2c1` [Compound 469, 4-(4-(2-((1-(tert-butyl)-1H-pyrazol-4-yl)amino)-2-oxoethyl)-2-fluoro-6-methylphenoxy)-N-methylquinoline-6-carboxamide], the IC50 with human NOD2 signaling (setting [2]) was 1.6 nM; on RIPK2 enzyme, less than 2.5 nM; in experiment [1] it was 6.6 nM.

On to `Cc1cc(CC(=O)Nc2cnn(C(C)(C)C)c2)c(F)cc1Oc1ccnc2ccc(C(=O)N3[C@H](C)CNC[C@@H]3C)cc12` [Compound 470, N-(1-(tert-butyl)-1H-pyrazol-4-yl)-2-(4-((6-((2R,6S)-2,6-dimethylpiperazine-1-carbonyl)quinolin-4-yl)oxy)-2-fluoro-5-methylphenyl)acetamide], for which the IC50 in the experiment on human NOD2 signaling (setting [2]) is 1.1 nM; on RIPK2 enzyme, less than 2.5 nM; in experiment [1], 13.1 nM.

In the case of `Cc1cc(CC(=O)Nc2cnn(C(C)(C)C)c2)c(F)cc1Oc1ccnc2ccc(C(=O)N3C[C@@H]4C[C@H]3CN4)cc12` [Compound 471, 2-(4-((6-((1S,4S)-2,5-diazabicyclo[2.2.1]heptane-2-carbonyl)quinolin-4-yl)oxy)-2-fluoro-5-methylphenyl)-N-(1-(tert-butyl)-1H-pyrazol-4-yl)acetamide], the IC50 was 9.9 nM in the experiment on human NOD2 signaling (setting [2]), less than 2.5 nM on RIPK2 enzyme and 1020 nM in experiment [1].

For the compound `Cc1cc(CC(=O)Nc2cnn(C(C)(C)C)c2)cc(Cl)c1Oc1ccnc2ccc(S(C)(=O)=O)cc12` [Compound 473, N-(1-(tert-butyl)-1H-pyrazol-4-yl)-2-(3-chloro-5-methyl-4-((6-(methylsulfonyl)quinolin-4-yl)oxy)phenyl)acetamide], the IC50 in the experiment on human NOD2 signaling (setting [2]) is 7.8 nM; at RIPK2 enzyme, less than 2.5 nM; in experiment [1] it was 171 nM.

Take `Cc1cc(CC(=O)Nc2cnn(C(C)(C)C)c2)c(Cl)cc1Oc1ccnc2ccc(S(C)(=O)=O)cc12` [Compound 474, N-(1-(tert-butyl)-1H-pyrazol-4-yl)-2-(2-chloro-5-methyl-4-((6-(methylsulfonyl)quinolin-4-yl)oxy)phenyl)acetamide]: the IC50 in the experiment on human NOD2 signaling (setting [2]) stood at 95.6 nM; on RIPK2 enzyme, 8.1 nM; in experiment [1] it was 621 nM.

With `Cc1cc(CC(=O)Nc2cnn(C(C)(C)C)c2)c(F)cc1Oc1ccnc2ccc(-c3nccnc3C)cc12` [Compound 476, N-(1-(tert-butyl)-1H-pyrazol-4-yl)-2-(2-fluoro-5-methyl-4-((6-(3-methylpyrazin-2-yl)quinolin-4-yl)oxy)phenyl)acetamide], the IC50 with human NOD2 signaling (setting [2]) was 5.9 nM; at RIPK2 enzyme, less than 2.5 nM; in experiment [1] it was 52.1 nM.

Turning to `Cc1cc(CC(=O)Nc2cnn(C(C)(C)C)c2)c(F)cc1Oc1ccnc2ccc(-c3ncncc3C)cc12` [Compound 477, N-(1-(tert-butyl)-1H-pyrazol-4-yl)-2-(2-fluoro-5-methyl-4-((6-(5-methylpyrimidin-4-yl)quinolin-4-yl)oxy)phenyl)acetamide], the IC50 is 5.4 nM in the experiment with human NOD2 signaling (setting [2]), less than 2.5 nM on RIPK2 enzyme and 38.7 nM in experiment [1].

Take `Cc1cc(CC(=O)Nc2cnn(C(C)(C)C)c2)c(F)cc1Oc1ccnc2ccc(-c3c[nH]nc3C)cc12` [Compound 479, N-(1-(tert-butyl)-1H-pyrazol-4-yl)-2-(2-fluoro-5-methyl-4-((6-(3-methyl-1H-pyrazol-4-yl)quinolin-4-yl)oxy)phenyl)acetamide]: the IC50 in the experiment with human NOD2 signaling (setting [2]) was 1.4 nM; at RIPK2 enzyme, less than 2.5 nM; in experiment [1] it was 5.8 nM.
